The target in test [1] is T1, β3(Q64R+G127T) homomeric GABAA receptor (Homo sapiens, UniProt P28472, G152T/Q89R).
T1 sequence (P28472 26-473 Q89R/G152T): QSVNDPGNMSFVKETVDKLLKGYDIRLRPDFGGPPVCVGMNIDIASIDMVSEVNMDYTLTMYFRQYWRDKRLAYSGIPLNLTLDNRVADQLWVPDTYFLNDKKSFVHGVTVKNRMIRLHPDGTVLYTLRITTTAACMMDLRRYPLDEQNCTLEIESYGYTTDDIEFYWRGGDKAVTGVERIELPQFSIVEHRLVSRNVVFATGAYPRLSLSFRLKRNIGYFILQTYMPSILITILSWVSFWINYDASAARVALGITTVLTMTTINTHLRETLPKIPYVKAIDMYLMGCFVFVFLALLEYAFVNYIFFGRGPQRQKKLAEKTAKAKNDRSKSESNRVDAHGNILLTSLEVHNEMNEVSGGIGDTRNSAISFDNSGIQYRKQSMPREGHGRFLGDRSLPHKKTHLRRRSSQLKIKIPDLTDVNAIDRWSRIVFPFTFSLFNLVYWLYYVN
The test is described as follows: two-electrode voltage clamp, concentration-response. The format is cell-based.

For the next test, the target named is α1β2γ2L GABAA receptor (Rattus norvegicus, UniProt P62813+P63138). The test is described as above. It is filed as cell-based.

`NCCc1c[nH]cn1` [histamine] had an EC50 in test [1] of 9 ± 0.5 mM.

`O=S(=O)(O)C1CCNCC1` [P4S, piperidine-4-sulfonic acid] showed an EC50 on α1β2γ2L GABAA receptor of 33 ± 12 µM.

These data come from article PMC11602654 (The Journal of General Physiology, 2024).
